Experimental data reported in publication PMC8689140 (Frontiers in Pharmacology, 2021).

What was measured:
rat brain VMAT2 = biological target: T1, rat brain VMAT2 (Rattus norvegicus, UniProt Q01827); assay: VMAT2 binding assay (inhibition of [3H]HTBZ binding); conditions: ratio of Ki vs HTBZ
T1 construct: the whole rat brain (excluding the cerebellum) or striatal were homogenized; tissue Eurofins Panlabs (assay performed by); host or cells: rat brain (without cerebellum) or striatum, synaptic vesicle suspension
T1 sequence (Q01827 whole entry): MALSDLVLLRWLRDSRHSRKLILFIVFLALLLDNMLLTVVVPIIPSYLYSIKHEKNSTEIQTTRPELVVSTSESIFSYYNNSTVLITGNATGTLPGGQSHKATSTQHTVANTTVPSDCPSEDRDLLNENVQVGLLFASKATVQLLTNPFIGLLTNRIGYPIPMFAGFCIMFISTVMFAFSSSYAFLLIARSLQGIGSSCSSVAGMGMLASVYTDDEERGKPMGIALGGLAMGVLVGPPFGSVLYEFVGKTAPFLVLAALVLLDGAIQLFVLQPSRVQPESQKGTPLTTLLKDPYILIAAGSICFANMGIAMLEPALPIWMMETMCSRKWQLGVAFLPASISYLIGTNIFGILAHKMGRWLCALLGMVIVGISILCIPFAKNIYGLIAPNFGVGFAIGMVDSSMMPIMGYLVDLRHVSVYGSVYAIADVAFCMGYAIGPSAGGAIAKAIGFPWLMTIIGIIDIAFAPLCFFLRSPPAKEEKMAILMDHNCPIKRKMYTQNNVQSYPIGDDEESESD
Experimental: In brief, the whole rat brain (excluding the cerebellum) or striatal were homogenized in 20 ml of ice-cold sucrose solution (0.32 M). […] The samples were centrifuged at 20,000 g at 4°C for 20 min, then 20 ml of MgSO4 solution (1 mM) was added to the supernatant.
A 96-well plate was used for the assay in duplicate. […] Samples were preincubated for 30 min at room temperature. […] All reactions were terminated using vacuum filtration over a GF/B glass fiber filter pretreated with 0.5% BSA. […] Radioactivity retained on the filters was determined by liquid scintillation counter. […] IC50 values were determined by a nonlinear least-squares regression analysis and Ki was calculated.

rat VMAT2 = biological target: T2, rat VMAT2 (Rattus norvegicus, UniProt Q01827); assay: [3H]DA uptake assay in rat striatal synaptosomes; format: biochemical
T2 construct: in vitro [^3H]DA uptake assay in rat striatal synaptosomes; from tissue; host or cells: rat striatal synaptosomes / vesicular suspension
T2 sequence (Q01827 whole entry): as above
Experimental: [^3H]DA (dihydroxyphenylethyethylamine, 3,4-[ring-2,5,6-^3H]; specific activity, 28.0 Ci/mmol) was purchased from Perkin Elmer. […] After drying, the filter plate was sealed with unifilter-96 back sealing tape and added 50 μl of microscint-20 (Perkin Elmer), then sealed the top of the filter plate with TopSeal-A. The radioactivity was measured by a TopCount scintillation counter. GraphPad Prism 5.0 was used to analyze data.

[1] = tested on: locomotor activity of rats; assay: Dose-dependent effects on locomotor activity in rats; format: in vivo, rat; conditions: for reduction rate (RR) of locomotion: 0.5-[…] after dosing
Experimental: Before administration, animals were transported to the test room and allowed to acclimate for at least 1 h. Immediately after drug administration, rats were placed into activity chambers to assess their basal locomotor activity using the TopScan monitoring system. The total travel distance was recorded from 0.5 to 1.5 h after administration in intervals of 10 min.

[2] = Bidirectional permeability in Caco-2 cell monolayers; format: in vitro ADME; conditions: human, Caco-2, with or without verapamil 30 μM (range covers both); 2.0, 10.0, and 100 µM, presence or absence of verapamil 30 μM, 2 h; read-out: mean Papp (AP→BL)
Experimental: (§1) Caco-2 cells (ATCC, United States) were seeded on a 96-multiwell insert system (Corning, United States) at a density of 1.0 × 10^5 cells/cm^2. After about 24 days of culture, […] permeability was measured to evaluate the integrity of Caco-2 cell monolayers, and the percent of lucifer yellow in basolateral well which should be less than 1%. Before initiating the transport studies, the cell monolayers were washed with warm HBSS. […] Aliquots from the receiver chamber were collected at 2 h after incubation and stored at −20°C until analysis via LC-MS/MS. All experiments were conducted in triplicate. Permeability coefficient (Papp) and the efflux ratio (ER = P app (BL→AP)/P app (AP→BL)) were calculated.

Caco-2 cell monolayers = assay: as above; format: in vitro ADME
Experimental: as §1

[3] = Metabolite identification in dog plasma after oral dose; format: in vivo; conditions: dog plasma after oral administration
Experimental: (§2) Male beagle dogs were randomly divided into four groups. […] The dogs were fasted for 12 h before treatment and 4 h after treatment, but they were granted free access to water. Blood was collected from the vein before administration and 0.083 (only for injection groups), 0.25, 0.5, 1, 2, 3, 4, 6, 8, 12 and 24 h, and placed it in heparinized tubes, and centrifuged it at 8,000 rpm for 10 min at 4°C to separate the plasma, which we stored at −20 °C until analysis. The plasma samples were pretreated by protein precipitation with acetonitrile and quantitated by the validated LC-MS/MS (Shimadzu Exion-Triple Quad 4500) method.
Then, four volumes of acetonitrile (containing 0.1% formic acid) were added into the pooled plasma samples to precipitate the proteins. After vortex-mixing and centrifugation, the supernatants were dried under a nitrogen stream. Then, the residues were resuspended in 100 μl of acetonitrile/water (1:1, v/v) with 0.1% formic acid. After centrifugation, the supernatants were analyzed by UPLC–UV-HRMS for metabolite identification.
The analysis was performed on Acquity UPLC system coupled with a diode array detector (Waters Corporation, United States) and Q Exactive™ Orbitrap HRMS (Thermo Electron Corporation, United States). […] The mobile phase was composed water containing 0.1% formic acid (A) and acetonitrile containing 0.1% formic acid (B). The flow rate was 0.40 ml/min. The elution conditions were the following linear gradient for metabolite identify in HLMs: 0–1 min: 95% A, 1–2 min: 80% A, 2–5 min: 80% A, 5–8 min: 70% A, 8–12 min: 30% A, 12–15 min: 5% A, 15–16 min: 95% A, and 16–18 min: 95% A. The elution conditions were the following for metabolite identify in dog plasma: 0–1 min: 95% A, 1–30 min: 70% A, 30–32 min: 30% A, 32–33 min: 5% A, 33–35 min: 95% A, and 35–40 min: 95% A.
HRMS were operated at positive ion mode using a heating electrospray ionization source (HESI). The optimized operating parameters were set as follows: sheath gas (nitrogen) flow rate of 35 psi, aux gas (nitrogen) flow rate of 10 psi, HESI and capillary temperature of 350°C, and spray voltage of 3.5 kV. The metabolites were detected by full MS/dd-MS^2 analysis from m/z 100 to m/z 1,000. The resolution of the first-class scan and second-class scan was 70 000 and 17 500, respectively. The collision energy for collision induced dissociation (NCE) was set to 20, 40 and 60 eV. The loop count was set to five and the dynamic exclusion duration to 10 s. […] Thermo Compound Discover software was used to identify expected and unknown metabolites, and we finally proposed (+)-13e metabolic pathways based on the deduced metabolites and relevant drug biotransformation knowledge.

[4] = PK in dogs after single oral or intravenous dose; format: in vivo, dog
Experimental: as §2
The system consisted of an Exion UHPLC system (Shimadzu, Japan) and a Triple Quad 4500 mass spectrometer (AB Sciex, United States) with an electrospray ionization source. Multiple reaction monitoring in the positive ionization mode was applied to measure analytes. Chromatographic separation was performed on a Acquity BEH C18 column (50 × 2.1 mm i. d., 1.7 μm, Waters, United States). The mobile phase was composed of 0.1% FA in water (A) and 0.1% FA in acetonitrile (B), and the flow rate was 0.4 ml/min. The elution conditions were the following linear gradient: 0–0.4 min: 90% A, 0.4–0.6 min: 60% A, 0.6–1.2 min: 10% A, 1.2–2.2 min: 10% A, 2.2–2.3 min: 90% A, 2.3–3.0 min: 90% A. The optimized parameters were as follows: the spray voltage 5.5 kV, source temperature 550 °C, pressure of source gas 1 and gas 2: 55psi, pressure of curtain gas: 30psi, and the DP, EP and CE voltage was 30,6 and 40 eV, respectively.

Q: Which “affinity for VMAT2 stronger than that of HTBZ” value (rat brain VMAT2) does the source give for `COc1cc2c(cc1OCC(F)(F)F)CCN1CC(CC(C)C)C(O)CC21` (single isomer, unassigned; (+)) [(+)-13e, (+)-9-(2,2,2-trifluoroethoxy)-α-dihydrotetrabenazine] here?
A: The value was ~3 fold.

Q: And the IC90 (rat VMAT2; [3H]DA uptake, rat striatal synaptosomes)?
A: The IC90 was 34.1 nM.

Q: What about the “inhibitory effect on [3H]DA uptake stronger than that of HTBZ” value (rat VMAT2; ratio of IC50 vs HTBZ) of the same compound?
A: Its value is “approximately 5 fold”.

Q: What about the starting effective dose ([1]; SD rats, first dose with significant inhibition of locomotor activity vs NS (p < 0.05)) of the same compound?
A: Its starting effective dose is 0.32 µmol/kg.

Q: What about the “reduction rate (RR) of locomotion” value ([1]; SD rats, single oral gavage 0.32 μmol/kg) of the same compound?
A: The value was 58.6%.

Q: And the “reduction rate (RR) of locomotion” value ([1]; SD rats, single oral gavage 1.3 μmol/kg)?
A: The value was 95.5%.

Q: What about the “PD effect stronger than that of VBZ in vivo” value ([1]; rat locomotor activity) of the same compound?
A: The value was “approximately 4 fold”.

Q: And the Papp A→B at 2 h [2]?
A: The Papp A→B at 2 h was 26 to 35 ×10⁻⁶ cm/s.

Q: What about the “permeability across the Caco-2 cell monolayer” value (Caco-2 cell monolayers) of the same compound?
A: Its value is “high permeability”.

Q: What about the “substrate of P-gp or breast cancer resistance protein (BCRP)” value (Caco-2 cell monolayers; efflux not observed) of the same compound?
A: Its value is “unlikely to be a substrate”.

Q: And the “O-detrifluoroethylation at the nine position” value [3]?
A: Its value is “did not occur”.

Q: And the “V, V/F” value ([4]; dog, single intravenous dose 0.6 μmol/kg)?
A: The value was 5.4 ± 1.1 L/kg.

Q: What about the clearance ([4]; dog, single intravenous dose 0.6 μmol/kg, read-out: Cl, Cl/F (converted)) of the same compound?
A: The clearance was 23.3 mL/min/kg.

Q: And the “V, V/F” value ([4]; dog, single oral dose 3 μmol/kg)?
A: Its value is 18.8 ± 9.2 L/kg.

Q: What about the “Cmax smaller than that of VBZ” value ([4]; dogs, oral administration at an equivalent dose) of the same compound?
A: The value was 2.9 fold.

Q: And the “Cmax larger than that of HTBZ” value ([4]; dogs, oral administration at an equivalent dose (HTBZ from VBZ))?
A: The value was 7.7 fold.

Q: What about the bioavailability ([4]; male, beagle, dog, plasma, dogs, oral 3 μmol/kg vs intravenous 0.6 μmol/kg, read-out: absolute oral bioavailability) of the same compound?
A: Its bioavailability is 75.9%.

Q: What about the CL/F ([4]; male, beagle, plasma, 3 umol/kg, dog, single oral dose 3 μmol/kg) of the same compound?
A: The CL/F was 31.7 mL/min/kg.
